Reference: PMC7730438, “Generation of KS-58 as the first K-Ras(G12D)-inhibitory peptide presenting anti-cancer activity in vivo” (Scientific Reports, 2020)
Several values for one entry are separate records, joined by “and”; a condition that tells them apart may be missing. Equal entries are not always repeated. Starred links: 1 amine or outer side, 2 acyl side, 3 side chain; linkers in the order of their positions; H or OH if unused. Positions of bridges follow the written chain, without caps; N, C: chain ends. Non-standard residues stand in square brackets, D forms with d. Residues, ends and D or L forms follow the SMILES beside them. Phe(4-F) = N[C@@H](Cc1ccc(F)cc1)C(=O)O; X1 = CCCCCCC[C@H](N[*:1])C(=O)[*:2]; Nle = CCCC[C@H](N)C(=O)O; X2 = C(C[*:1])C[*:2]; βAla = NCCC(=O)O

Experiments:
A427 cells = assay: Cell proliferation assay (CellTiter-Glo, 72 h); assay type: cell-based, human; details: A427 (G12D), peptide 30 µM, n = 4, ± SEM
Description: (§1) A427 (ATCC HTB-53), A549 (ATCC CCL-185), H1975 (ATCC CRL-5908), PANC-1 (ATCC CRL-1469), MIA PaCa-2 (ATCC CRL-1420), and Capan-1 (ATCC HTB-79) cells were purchased from ATCC, and each cell was cultured in medium supplemented with 10% fetal bovine serum (FBS), according to the protocol recommended by the manufacture.
(§2) The effect of peptides on cell proliferation of A427, A549, H1975, PANC-1, MIA PaCa-2, and Capan-1 cells was determined by 72 h exposure to peptides. Cells were seeded at 1000 cells/well in 96-well tissue culture plates in each growth media and allowed to adhere overnight on day 0. Peptides were solved in DMSO and then diluted with each growth media for a constant final DMSO concentration of 0.5%. Media in the wells were removed and replaced with diluted peptide solutions, and cells were incubated for 3 days. During the incubation, medium containing the peptides was replaced every day. Relative cell numbers were estimated using CellTiter-Glo assay kit (G7570, Promega, WI, USA) according to the manufacturer’s instructions. Luminescence was detected using SpectraMax i3x (MOLECULAR DEVICES, CA, USA). Cell proliferation rate (%) was calculated based on cell numbers at day 0 as 0% and at day 3 without peptide treatment as 100%.

A549 cells = assay: Cell proliferation assay (CellTiter-Glo, 72 h); assay type: cell-based, human; details: A549 (G12S), peptide 30 µM, n = 4, ± SEM
Description: as §1, §2

H1975 cells = assay: Cell proliferation assay (CellTiter-Glo, 72 h); assay type: cell-based, human; details: H1975 (WT), peptide 30 µM, n = 4, ± SEM
Description: as §1, §2

PANC-1 cells = assay: Cell proliferation assay (CellTiter-Glo, 72 h); assay type: cell-based, human; details: PANC-1 (G12D), peptide 30 µM, n = 4, ± SEM
Description: as §1, §2

[1] = tested on: phosphorylation of ERK in A427 cells; assay: Erk-phosphorylation assay (Phospho-ERK1/ERK2 ELISA); assay type: cell-based, human; details: A427, peptide 30 µM, n = 4, ± SEM
Description: as §1
(§3) For evaluation of the effect of peptides on Ras–ERK pathways, phosphorylation of ERK was measured by Phospho-ERK1 (T202/Y204)/ERK2 (T185/Y187) DuoSet IC ELISA (DYC1018B-2, R&D SYSTEMS, MN, USA) according to the protocol supplied by the manufacturer. After 16 h serum starvation, cells were treated with peptides diluted in FBS-free medium for 1 h, and then treated with peptides diluted in FBS-containing medium for an additional 1 h. Phosphorylation rate of ERK (%) was calculated based on no serum stimulation as 0% and serum stimulation without peptide treatment as 100%.

[2] = tested on: phosphorylation of ERK in PANC-1 cells; assay: as above; assay type: cell-based, human; details: PANC-1, peptide 30 µM, n = 4, ± SEM
Description: as §1, §3

[3] = molecular target: T1, K-Ras(G12D)^GDP–SOS1 interaction (Homo sapiens, UniProt P01116, G12D); assay: Intracellular PPI inhibition assay using NanoBiT in HEK293T cells; assay type: cell-based; details: peptide 30 µM, n = 4
T1 construct: host or cells: HEK293T
Description: (§4) Intracellular protein–protein interaction (PPI) inhibition assays were carried out using the NanoBiT system (Promega). Three kinds of plasmids with CMV promoters, which encodes human K-Ras(G12D) fusing SmBiT to the N-terminus, encodes human SOS1 fusing LgBiT to the C-terminus, and encodes human BRAF fusing LgBiT to the C-terminus, were prepared by Promega. Each combination of plasmids was transfected to HEK293T cells by FuGENE HD Reagent (E2312, […]). After 30 h incubation at 37 °C under 5% CO2, the cells were recovered, and seeded to 96-well tissue culture white plate with 10% FBS containing DMEM, and incubated overnight. Peptides were added to the plate and incubated for another 2 h. Nano-Glo (Promega, N2011) was directly added to the plate, and luminescence was immediately monitored. Intracellular K-Ras(G12D)^GDP–SOS1 and K-Ras(G12D)^GTP–BRAF interactions (%) were calculated based on no peptide treatment as 100% and only transfection of plasmid encoding LgBiT fusion protein as 0%.

[4] = molecular target: T2, K-Ras(G12D)^GTP–BRAF interaction (Homo sapiens, UniProt P01116, G12D); assay: as above; assay type: cell-based; details: peptide 30 µM, n = 4
T2 construct: host or cells: HEK293T
Description: as §4

[5] = Pharmacokinetics study in mice, intravenous injection; assay type: in vivo
Description: Prior to the in vivo anti-cancer activity evaluation, a preliminary pharmacokinetics (PK) study was completed using a 20 mg/kg intravenous injection. Plasma was collected at 15 min, 1 h, 4 h, and 24 h after injection. […] KS-58 was detected in plasma 15 min and 1 h after intravenous injection, but it was not detected at 4 h and 24 h, due to the limited detection ability of RP-HPLC. The concentration change indicated a two-compartment model (Fig. 5A).
Animal experiments were carried out at UNITECH Co. Ltd. (Chiba, Japan) in accordance with the guidelines of the Animal Care and Use Committee of UNITECH (approval No. AGR IMF-190807A-30). KS-58 was dissolved in DMSO and then tenfold diluted by saline. The peptide solution was injected intravenously to Slc:ICR male mice (8 weeks old; Japan SLC, Inc.) (20 mg/kg, n = 3). Blood samples were collected from the mice at 15 min, 1 h, 4 h, and 24 h after injection. The blood was chilled on ice and then centrifuged at 12,000 rpm for 3 min at 4 °C. Plasma protein was precipitated by acetonitrile, and the supernatant was recovered. The remaining peptides in prepared samples were analyzed by RP-HPLC as described above.

[6] = tested on: PANC-1 subcutaneous xenografts; assay: Anti-cancer efficacy in PANC-1 subcutaneous xenografts; assay type: in vivo, mice; details: 40 mg/kg iv once every 2 days for 4 weeks
Description: Animal experiments were carried out at UNITECH Co. Ltd. in accordance with the guidelines of the Animal Care and Use Committee of UNITECH (approval No. AGR IMF-190807A-31, -33, AGR IMF-20615A-30). To establish subcutaneous xenograft tumor models, 1 × 10^7 cells/150 µL of PANC-1 cells were subcutaneously injected into the flank of Crlj:SHO-Prkdc^scidHr^hr female mice (7 weeks old; Charles River Laboratories). KS-58 was dissolved in DMSO and then tenfold diluted by saline. The peptide solution was injected intravenously to the mice bearing tumors once every 2 days for 4 weeks (40 mg/kg, n = 10). The tumor growth rate was recorded every 3 days by measuring the major and minor axes of the tumors formed with a digital caliper. Measurements were transformed into tumor volume using the formula: tumor volume (mm^3) = major axis × minor axis^2 × 0.5.

- Intracellular K-Ras(G12D)^GDP–SOS1 interaction (luminescence, %) [3]: 35.5%
- Intracellular K-Ras(G12D)^GTP–BRAF interaction (luminescence, %) [4]: 53.8%
- Detection in plasma by RP-HPLC ([5]; 20 mg/kg iv, 15 min and 1 h after injection): detected
- Detection in plasma by RP-HPLC ([5]; 20 mg/kg iv, 4 h and 24 h after injection): not detected
- peptide concentration in the blood ([5]; 20 mg/kg iv, for at least 1 h after the injection): more than 30 μM
- half-life ([5]; male, Slc:ICR, mouse, plasma, 20 mg/kg intravenous injection, n = 3, read-out: blood circulation half-life (t1/2) in the elimination phase): 1 ± 0.0317 h
SMILES: CCCCCCC[C@@H]1NC(=O)[C@@H]2CSCCCSC[C@@H](NC(=O)[C@H](Cc3c[nH]c4ccccc34)NC(=O)[C@@H]3CCCN3C(=O)[C@H](CC(=O)O)NC(=O)[C@H](Cc3ccc(F)cc3)NC(=O)[C@H](CO)NC1=O)C(=O)NCCC(=O)N1CCC[C@H]1C(=O)N[C@@H](CCCC)C(=O)N2 [KS-58, c[βAla-Pro-Nle-c(Cys-Anon-Ser-4fF-Asp-Pro-Trp-^DCys)]] (cyclo([βAla]P[Nle]C[X1]S[Phe(4-F)]DPW[dC]); linker 4-11 via X2)
- Cell proliferation (%) (A427 cells): 21.1% and 21.1 ± 5.5%
- Cell proliferation (%) (A549 cells): 81.3 ± 1.5%
- Cell proliferation (%) (H1975 cells): 92.7 ± 0.3%
- Cell proliferation (%) (PANC-1 cells): 50.1% and 50.1 ± 4.1%
- pERK (%) [1]: 26.0% and 26.0 ± 6.0%
- pERK (%) [2]: 57.6% and 57.6 ± 7.6%
- Tumor growth (tumor volume) in subcutaneous xenografts [6]: significant tumor growth suppression
